Data on 18 molecules can be found in ChEMBL document CHEMBL5236662, “Synthesis and biological evaluation of tert-butyl ester and ethyl ester prodrugs of L-γ-methyleneglutamic acid amides for cancer” (Bioorg Med Chem, 2023).

Bounds are passed on as bounds.

One series deals with MCF7. The experiment in a line: Antiproliferative activity against human MCF7 cells assessed as inhibition of cell growth incubated for 72 hrs by Hoechst 33342/propidium iodide staining based fluorescence analysis. It counts as functional. Particulars: MCF7, 72 h.
A short description of series [1]: Cytotoxicity against human MCF-10A cells assessed as inhibition of cell growth incubated for 72 hrs by Hoechst 33342/propidium iodide staining based fluorescence analysis. The series is classed as toxicity. Conditions: human, MCF-10A cells.
In another series the test system is SK-BR-3. The experiment in a line: Antiproliferative activity against human SK-BR-3 cells assessed as inhibition of cell growth incubated for 72 hrs by Hoechst 33342/propidium iodide staining based fluorescence analysis. It counts as functional. Conditions: SK-BR-3, 72 h.
The next series deals with MDA-MB-231. The experiment in a line: Antiproliferative activity against human MDA-MB-231 cells assessed as inhibition of cell growth incubated for 72 hrs by Hoechst 33342/propidium iodide staining based fluorescence analysis. It counts as functional. Conditions: MDA-MB-231, 72 h.

Turning to `C=C(C[C@H](NC(=O)OC(C)(C)C)C(=O)OCC)C(=O)NCc1ccccc1`, the half-inhibitory concentration (IC50) is more than 1 mM with MCF7, less than 1 mM in the series on SK-BR-3 and more than 1 mM with MDA-MB-231. Further, the IC50 at 72 h in series [1] was more than 1 mM.

`C=C(C[C@H](NC(=O)OC(C)(C)C)C(=O)OC(C)(C)C)C(=O)NCc1ccc(F)cc1`: the values for the IC50 in the series on MCF7, in the series on SK-BR-3 and with MDA-MB-231 were more than 1 mM, less than 1 mM and less than 1 mM, respectively. Also, the IC50 at 72 h in series [1] is more than 1 mM.

For `C=C(C[C@H](NC(=O)OC(C)(C)C)C(=O)OC(C)(C)C)C(=O)NCc1ccccc1`, the IC50 with MCF7 was more than 1 mM; in the series with SK-BR-3 it was less than 1 mM; in the series with MDA-MB-231, less than 1 mM. In series [1], the IC50 at 72 h was more than 1 mM.

In the case of `C=C(C[C@H](NC(=O)OC(C)(C)C)C(=O)OC(C)(C)C)C(N)=O`, the IC50 in the series on MCF7 was less than 1 mM; in the series on SK-BR-3 it was less than 1 mM; in the series on MDA-MB-231, more than 1 mM. Besides, the IC50 at 72 h in series [1] was more than 1 mM.

Regarding `C=C(C[C@H](NC(=O)OC(C)(C)C)C(=O)OCC)C(=O)N1CCCCC1`, the IC50 with MCF7, with SK-BR-3 and in the series on MDA-MB-231 was more than 1 mM in each case. In addition, the IC50 at 72 h in series [1] was more than 1 mM.

As to `C=C(C[C@H](NC(=O)OC(C)(C)C)C(=O)OCC)C(=O)NCc1ccc(F)cc1`, the IC50 in the series with MCF7 was more than 1 mM; in the series with SK-BR-3, less than 1 mM; in the series on MDA-MB-231 it was more than 1 mM. In addition, in series [1], the half-inhibitory concentration (IC50) at 72 h was more than 1 mM.

Regarding `C=C(C[C@H](NC(=O)OC(C)(C)C)C(=O)OC(C)(C)C)C(=O)NC1CC1`, the IC50 in the series on MCF7, in the series with SK-BR-3 and in the series with MDA-MB-231 was less than 1 mM throughout. Moreover, the IC50 at 72 h in series [1] was more than 1 mM.

Take `C=C(C[C@H](NC(=O)OC(C)(C)C)C(=O)OCC)C(=O)Nc1ccccc1`: the half-inhibitory concentration (IC50) with MCF7, in the series with SK-BR-3 and in the series on MDA-MB-231 was more than 1 mM in each case. For the same molecule, the concentration for half-maximal inhibition (IC50) at 72 h in series [1] was more than 1 mM.

Regarding `C=C(C[C@H](NC(=O)OC(C)(C)C)C(=O)OCC)C(=O)NC1CC1`, the IC50 with MCF7, in the series with SK-BR-3 and with MDA-MB-231 was more than 1 mM each time. The IC50 at 72 h in series [1] is more than 1 mM.

Regarding `C=C(C[C@H](NC(=O)OC(C)(C)C)C(=O)OCC)C(=O)Nc1ccc(Cl)cc1`, the results for the IC50 with MCF7, in the series with SK-BR-3 and in the series with MDA-MB-231 were more than 1 mM, less than 1 mM and more than 1 mM, respectively. Also, the IC50 at 72 h in series [1] was more than 1 mM.

Consider `C=C(C[C@H](NC(=O)OC(C)(C)C)C(=O)OCC)C(=O)NCc1ccc([N+](=O)[O-])cc1`, for which the IC50 in the series on MCF7 was more than 1 mM; in the series with SK-BR-3 it was less than 1 mM; in the series on MDA-MB-231, more than 1 mM. Also, in series [1], the IC50 at 72 h is more than 1 mM.

In the case of `C=C1C[C@@H](C(=O)OCC)N(C(=O)OC(C)(C)C)C1=O`, the IC50 with MCF7, in the series with SK-BR-3 and in the series with MDA-MB-231 was more than 1 mM each time. For the same molecule, in series [1], the IC50 at 72 h is more than 1 mM.

Regarding `C=C1C[C@@H](C(=O)OC(C)(C)C)NC1=O`, the IC50 in the series with MCF7 was more than 1 mM; with SK-BR-3 it was more than 1 mM; in the series on MDA-MB-231, less than 1 mM. The half-inhibitory concentration (IC50) at 72 h in series [1] is more than 1 mM.

For `C=C1C[C@@H](C(=O)O)NC1=O`, the IC50 with MCF7, with SK-BR-3 and in the series on MDA-MB-231 was more than 1 mM throughout. Moreover, the IC50 at 72 h in series [1] was more than 1 mM.

As for `C=C(C[C@H](NC(=O)OC(C)(C)C)C(=O)OC(C)(C)C)C(=O)NCc1ccc([N+](=O)[O-])cc1`, the IC50 in the series with MCF7 is more than 1 mM; in the series with SK-BR-3 it was less than 1 mM; with MDA-MB-231, less than 1 mM. In addition, in series [1], the IC50 at 72 h is more than 1 mM.

With `C=C1C[C@@H](C(=O)OCC)NC1=O`, the IC50 in the series on MCF7, with SK-BR-3 and in the series with MDA-MB-231 was more than 1 mM in each case. For the same molecule, in series [1], the IC50 at 72 h is more than 1 mM.

In the case of `C=C(C[C@H](NC(=O)OC(C)(C)C)C(=O)OCC)C(N)=O`, the IC50 is more than 1 mM with MCF7, less than 1 mM in the series on SK-BR-3 and less than 1 mM with MDA-MB-231. In series [1], the IC50 at 72 h was more than 1 mM.

`C=C(C[C@H](NC(=O)OC(C)(C)C)C(=O)OC(C)(C)C)C(=O)Nc1ccccc1`: the IC50 in the series with MCF7 is more than 1 mM; in the series with SK-BR-3 it was less than 1 mM; with MDA-MB-231 it was less than 1 mM. For the same molecule, the 50% inhibitory concentration (IC50) at 72 h in series [1] is more than 1 mM.
